Assay [1] has as its system HCV genotype 1a (H77 strain) replicon in HUH-7 cells. Briefly: HCV replicon luciferase reporter assay, genotype 1a. To be noted: Hepatitis C virus, Huh-7, 72 h, HCV genotype 1a replicon luciferase, 3 days incubation, read-out: LE_1a (EC50, range). It is filed as cell-based. In short, it runs like this: (§1)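 Replicon inhibition for both genotypes was measured as Renilla luciferase signal (EnduRen, 7.5 μM final, 2 h) after 3-day, 37° C exposure of replicon-bearing HUH-7 cells in 4% FCS DMEM, 0.5% DMSO. The 1b construct carries S1179I; the 1a H77 construct carries P1496L and S2204I. Twenty-point, 3-fold dilutions were fitted four-parametrically for EC50, and CC50 was taken from multiplexed Cell Titer-Blue.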

Assay [2] has as its system HCV genotype 1b (Con1) replicon in HUH-7 cells. In words: HCV replicon luciferase reporter assay, genotype 1b. It is filed as cell-based. To be noted: Hepatitis C virus, Huh-7, 72 h, HCV genotype 1b replicon luciferase, 3 days incubation, read-out: LE_1b (EC50, range). In short, it runs like this: as §1
(A replicon is a self-replicating genome or part of one, used to study replication in cells.)

In general, EC50 refers to the concentration at which the effect is half-maximal. `C[C@@H]1CC/C=C\[C@@H]2C[C@@]2(C(=O)NS(=O)(=O)C2(C)CC2)NC(=O)[C@@H]2C[C@@H](Oc3nccc4c(N5CCOCC5)cccc34)CN2C(=O)[C@@H](NC(=O)OC(C)(C)C)[C@H](C)C1` [Compound 5122, tert-butyl ((2R,6S,7R,9R,13aS,14aR,16aS,Z)-7,9-dimethyl-14a-(((1-methylcyclopropyl)sulfonyl)carbamoyl)-2-((5-morpholinoisoquinolin-1-yl)oxy)-5,16-dioxo-1,2,3,5,6,7,8,9,10,11,13a,14,14a,15,16,16a-hexadecahydrocyclopropa[e]pyrrolo[1,2-a][1,4]diazacyclopentadecin-6-yl)carbamate]: the concentration for a half-maximal effect (EC50) in assay [1] and in assay [2] was under 5.46 nM each time.

`CCOc1ccc2c(O[C@@H]3C[C@H]4C(=O)N[C@]5(C(=O)NS(=O)(=O)C6CC6)C[C@H]5/C=C\CC[C@H](C)C[C@@H](C)[C@H](NC(=O)OC(C)(C)C)C(=O)N4C3)nccc2c1` [Compound 5127, tert-butyl ((2R,6S,7R,9S,13aS,14aR,16aS,Z)-14a-((cyclopropylsulfonyl)carbamoyl)-2-((6-ethoxyisoquinoline-1-yl)oxy)-7,9-dimethyl-5,16-dioxo-1,2,3,5,6,7,8,9,10,11,13a,14,14a,15,16,16a-hexadecahydrocyclopropa[e]pyrrolo[1,2-a][1,4]diazacyclopentadecin-6-yl)carbamate]: the EC50 in assay [1] and in assay [2] was under 5.46 nM each time.

For `CCOc1ccc2c(O[C@@H]3C[C@H]4C(=O)N[C@]5(C(=O)NS(=O)(=O)C6CC6)C[C@H]5/C=C\CC[C@@H](C)C[C@@H](C)[C@H](NC(=O)OC(C)(C)C)C(=O)N4C3)nccc2c1` [Compound 5128, tert-butyl ((2R,6S,7R,9R,13aS,14aR,16aS,Z)-14a-((cyclopropylsulfonyl)carbamoyl)-2-((6-ethoxyisoquinolin-1-yl)oxy)-7,9-dimethyl-5,16-dioxo-1,2,3,5,6,7,8,9,10,11,13a,14,14a,15,16,16a-hexadecahydrocyclopropa[e]pyrrolo[1,2-a][1,4]diazacyclopentadecin-6-yl)carbamate], the EC50 in assay [1] and in assay [2] was under 5.46 nM throughout.

On to `CCOc1ccc2c(O[C@@H]3C[C@H]4C(=O)N[C@]5(C(=O)NS(=O)(=O)C6(C)CC6)C[C@H]5/C=C\CC[C@H](C)C[C@@H](C)[C@H](NC(=O)OC(C)(C)C)C(=O)N4C3)nccc2c1` [Compound 5133, tert-butyl ((2R,6S,7R,9S,13aS,14aR,16aS,Z)-2-((6-ethoxyisoquinolin-1-yl)oxy)-7,9-dimethyl-14a-(((1-methylcyclopropyl)sulfonyl)carbamoyl)-5,16-dioxo-1,2,3,5,6,7,8,9,10,11,13a,14,14a,15,16,16a-hexadecahydrocyclopropa[e]pyrrolo[1,2-a][1,4]diazacyclopentadecin-6-yl)carbamate], for which the figures for the EC50 in assay [1] and in assay [2] were 4.82 to 103 nM and under 5.46 nM, respectively.

In the case of `CCOc1ccc2c(O[C@@H]3C[C@H]4C(=O)N[C@]5(C(=O)NS(=O)(=O)C6(C)CC6)C[C@H]5/C=C\CC[C@@H](C)C[C@@H](C)[C@H](NC(=O)OC(C)(C)C)C(=O)N4C3)nccc2c1` [Compound 5134, tert-butyl ((2R,6S,7R,9R,13aS,14aR,16aS,Z)-2-((6-ethoxyisoquinolin-1-yl)oxy)-7,9-dimethyl-14a-(((1-methylcyclopropyl)sulfonyl)carbamoyl)-5,16-dioxo-1,2,3,5,6,7,8,9,10,11,13a,14,14a,15,16,16a-hexadecahydrocyclopropa[e]pyrrolo[1,2-a][1,4]diazacyclopentadecin-6-yl)carbamate], the EC50 in assay [1] and in assay [2] was under 5.46 nM each time.

Take `CCOc1ccc2c(O[C@@H]3C[C@H]4C(=O)N[C@]5(C(=O)NS(=O)(=O)C6(C)CC6)C[C@H]5/C=C\CC[C@H](C)C[C@@H](C)[C@H](NC(=O)OCC5(C)CC5)C(=O)N4C3)nccc2c1` [Compound 5139, (1-methylcyclopropyl)methyl ((2R,6S,7R,9S,13aS,14aR,16aS,Z)-2-((6-ethoxyisoquinolin-1-yl)oxy)-7,9-dimethyl-14a-(((1-methylcyclopropyl)sulfonyl)carbamoyl)-5,16-dioxo-1,2,3,5,6,7,8,9,10,11,13a,14,14a,15,16,16a-hexadecahydrocyclopropa[e]pyrrolo[1,2-a][1,4]diazacyclopentadecin-6-yl)carbamate]: the EC50 in assay [1] is 4.82 to 103 nM; in assay [2], under 5.46 nM.

For `CCOc1ccc2c(O[C@@H]3C[C@H]4C(=O)N[C@]5(C(=O)NS(=O)(=O)C6(C)CC6)C[C@H]5/C=C\CC[C@@H](C)C[C@@H](C)[C@H](NC(=O)OCC5(C)CC5)C(=O)N4C3)nccc2c1` [Compound 5140, (1-methylcyclopropyl)methyl ((2R,6S,7R,9R,13aS,14aR,16aS,Z)-2-((6-ethoxyisoquinolin-1-yl)oxy)-7,9-dimethyl-14a-(((1-methylcyclopropyl)sulfonyl)carbamoyl)-5,16-dioxo-1,2,3,5,6,7,8,9,10,11,13a,14,14a,15,16,16a-hexadecahydrocyclopropa[e]pyrrolo[1,2-a][1,4]diazacyclopentadecin-6-yl)carbamate], the EC50 in assay [1] and in assay [2] was under 5.46 nM throughout.

For the molecule `CCOc1ccc2c(O[C@@H]3C[C@H]4C(=O)N[C@]5(C(=O)NS(=O)(=O)C6(C)CC6)C[C@H]5/C=C\CC[C@H](C)C[C@@H](C)[C@H](NC(=O)O[C@H](C)C(F)(F)F)C(=O)N4C3)nccc2c1` [Compound 5141, (R)-1,1,1-trifluoropropan-2-yl ((2R,6S,7R,9S,13aS,14aR,16aS,Z)-2-((6-ethoxyisoquinolin-1-yl)oxy)-7,9-dimethyl-14a-(((1-methylcyclopropyl)sulfonyl)carbamoyl)-5,16-dioxo-1,2,3,5,6,7,8,9,10,11,13a,14,14a,15,16,16a-hexadecahydrocyclopropa[e]pyrrolo[1,2-a][1,4]diazacyclopentadecin-6-yl)carbamate], the results for the EC50 in assay [1] and in assay [2] were 4.82 to 103 nM and under 5.46 nM, respectively.

Take `CCOc1ccc2c(O[C@@H]3C[C@H]4C(=O)N[C@]5(C(=O)NS(=O)(=O)C6(C)CC6)C[C@H]5/C=C\CC[C@@H](C)C[C@@H](C)[C@H](NC(=O)O[C@H](C)C(F)(F)F)C(=O)N4C3)nccc2c1` [Compound 5142, (R)-1,1,1-trifluoropropan-2-yl ((2R,6S,7R,9R,13aS,14aR,16aS,Z)-2-((6-ethoxyisoquinolin-1-yl)oxy)-7,9-dimethyl-14a-(((1-methylcyclopropyl)sulfonyl)carbamoyl)-5,16-dioxo-1,2,3,5,6,7,8,9,10,11,13a,14,14a,15,16,16a-hexadecahydrocyclopropa[e]pyrrolo[1,2-a][1,4]diazacyclopentadecin-6-yl)carbamate]: the EC50 in assay [1] and in assay [2] was under 5.46 nM in each case.

`CCOc1ccc2c(O[C@@H]3C[C@H]4C(=O)N[C@]5(C(=O)NS(=O)(=O)C6(C)CC6)C[C@H]5/C=C\CC[C@H](C)C[C@@H](C)[C@H](NC(=O)NC(C)(C)C(F)(F)F)C(=O)N4C3)nccc2c1` [Compound 5143, (2R,6S,7R,9S,13aS,14aR,16aS,Z)-2-((6-ethoxyisoquinolin-1-yl)oxy)-7,9-dimethyl-N-((1-methylcyclopropyl)sulfonyl)-5,16-dioxo-6-(3-(1,1,1-trifluoro-2-methylpropan-2-yl)ureido)-1,2,3,5,6,7,8,9,10,11,13a,14,14a,15,16,16a-hexadecahydrocyclopropa[e]pyrrolo[1,2-a][1,4]diazacyclopentadecine-14a-carboxamide]: the EC50 in assay [1] was 4.82 to 103 nM; in assay [2] it was under 5.46 nM.

Turning to `CCOc1ccc2c(O[C@@H]3C[C@H]4C(=O)N[C@]5(C(=O)NS(=O)(=O)C6(C)CC6)C[C@H]5/C=C\CC[C@@H](C)C[C@@H](C)[C@H](NC(=O)NC(C)(C)C(F)(F)F)C(=O)N4C3)nccc2c1` [Compound 5144, (2R,6S,7R,9R,13aS,14aR,16aS,Z)-2-((6-ethoxyisoquinolin-1-yl)oxy)-7,9-dimethyl-N-((1-methylcyclopropyl)sulfonyl)-5,16-dioxo-6-(3-(1,1,1-trifluoro-2-methylpropan-2-yl)ureido)-1,2,3,5,6,7,8,9,10,11,13a,14,14a,15,16,16a-hexadecahydrocyclopropa[e]pyrrolo[1,2-a][1,4]diazacyclopentadecine-14a-carboxamide], the EC50 is 4.82 to 103 nM in assay [1] and under 5.46 nM in assay [2].

Regarding `CC(C)Oc1ccc2c(O[C@@H]3C[C@H]4C(=O)N[C@]5(C(=O)NS(=O)(=O)C6CC6)C[C@H]5/C=C\CC[C@H](C)C[C@@H](C)[C@H](NC(=O)OC(C)(C)C)C(=O)N4C3)nccc2c1` [Compound 5145, tert-butyl ((2R,6S,7R,9S,13aS,14aR,16aS,Z)-14a-((cyclopropylsulfonyl)carbamoyl)-2-((6-isopropoxyisoquinolin-1-yl)oxy)-7,9-dimethyl-5,16-dioxo-1,2,3,5,6,7,8,9,10,11,13a,14,14a,15,16,16a-hexadecahydrocyclopropa[e]pyrrolo[1,2-a][1,4]diazacyclopentadecin-6-yl)carbamate], the EC50 is 4.82 to 103 nM in assay [1] and under 5.46 nM in assay [2].

For the molecule `CC(C)Oc1ccc2c(O[C@@H]3C[C@H]4C(=O)N[C@]5(C(=O)NS(=O)(=O)C6CC6)C[C@H]5/C=C\CC[C@@H](C)C[C@@H](C)[C@H](NC(=O)OC(C)(C)C)C(=O)N4C3)nccc2c1` [Compound 5146, tert-butyl ((2R,6S,7R,9R,13aS,14aR,16aS,Z)-14a-((cyclopropylsulfonyl)carbamoyl)-2-((6-isopropoxyisoquinolin-1-yl)oxy)-7,9-dimethyl-5,16-dioxo-1,2,3,5,6,7,8,9,10,11,13a,14,14a,15,16,16a-hexadecahydrocyclopropa[e]pyrrolo[1,2-a][1,4]diazacyclopentadecin-6-yl)carbamate], the half-maximal effective concentration (EC50) in assay [1] and in assay [2] was under 5.46 nM in each case.

For the origin of these results see patent US9499550B2 (BRISTOL-MYERS SQUIBB COMPANY, priority 2012, dated 2016).
